Test results as given in patent US10676496B2, “Method for producing flavonoid inclusion compound” (TAIYO KAGAKU CO., LTD., priority 2017, dated 2020).
Where two headings read alike, the source gives them in different places.

What was measured:
[1] = cited from earlier work
[2] = Evaluation of storage stability (green tea); type: physicochemical; details: 0.03% as hesperetin-7-glucoside; for presence or absence of the precipitates, 4° C.: 7 days at 4° C.; for presence or absence of the precipitates, 25° C.: 7 days at 25° C.
Method: Evaluation of Storage Stability (Green Tea)
Hesperidin (manufactured by Hamari Chemicals., Ltd.), hesperetin-7-glucoside (prepared in the following), a flavonoid inclusion compound of Example 22 or a composition of flavonoid glycosides of Example 40 was added to a commercially available green tea (“Oi Ocha,” manufactured by ITO EN, LTD.) so as to have a concentration calculated as 0.03% in terms of hesperetin-7-glucoside conversion. The mixture was allowed to stand for 7 days at 4° C. and 25° C., and the presence or absence of the precipitates was then visually observed.
Seven grams of Hesperidin (manufactured by Hamari Chemicals., Ltd.) was added to […] of an aqueous solution, and the solution was adjusted to 70° C. and a pH of 4.5. Thereafter, 0.5 g of naringinase (Amano Enzyme Inc. 155 u/g) was added thereto while stirring, and the solution was recovered and dried, to give 4.2 g of hesperetin-7-glucoside having a content of 96% or more. Identification as being hesperetin-7-glucoside and a content thereof were analyzed by NMR and HPLC in the same manner as mentioned above.

[3] = Evaluation of storage stability (lemon beverage); type: physicochemical; details: 0.3% as naringenin-7-glucoside; for presence or absence of the precipitates, 4° C.: 1 month at 4° C.; for presence or absence of the precipitates, 25° C.: 1 month at 25° C.
Method: Evaluation of Storage Stability (Lemon Beverage)
Naringin (manufactured by SIGMA), naringenin-7-glucoside (prepared hereinbelow) or a flavonoid inclusion compound-containing composition of Example 109 was added to a commercially available lemon beverage (C1000 Lemon Water, manufactured by HOUSE […] FOODS CORPORATION) so as to have a concentration calculated as 0.3% in terms of naringenin-7-glucoside conversion, the beverage was allowed to stand for 1 month at 4° C. or 25° C., and the presence or absence of the precipitates was then visually observed.
After the termination of the reaction according to Comparative Example 102, the precipitates that were previously allowed to stand at room temperature were recovered, washed with water, recrystallized and dried, to give 13 g of naringenin-7-glucoside having a content of 95% or more. The identity of the product with a reagent naringenin-7-glucoside (Wako) by HPLC and a content thereof were analyzed.

[4] = Evaluation of bioavailability; type: in vivo
Text: Evaluation of Bioavailability
Nine-week-old Wister rats (male) were given with MF (Oriental Yeast Co., Ltd.) and bred for 7 days, and the rats were then subjected to fasting from the day before the administration of a test substance. Thereafter, 100 μmol/kg (calculated as IQC) of a dried product of Example 16 prepared in the evaluation of the effects of preventing flavor deterioration, a rutin suspension (Alps Pharmaceutical Ind., Co., Ltd., 100 μmol/kg (calculated as IQC)), 1,000 μmol/kg (calculated as HPT-7G) of dried product of Example 22 prepared in the evaluations of the effects of preventing flavor deterioration, and a hesperidin suspension (Hamari Chemicals., Ltd., 1,000 μmol/kg (calculated as HPT-7G)) were orally administered to the rats in a single dose (orally administered by gavage, n=2). Blood collection into heparinized tubes was carried out from tail veins of rats 30 minutes, 1 hour and 3 hours after the administration, and the blood was centrifuged to obtain plasma. In the drawn sera sample, the amounts of quercetin derivatives were measured according to a method by Makino et al (Biol. pharm. Bull., 32(12) 2034, 2009), and the amounts of hesperetin derivatives were measured according to a method by Yamada et al (Biosci. Biotechnol. Biochem, 70(6), 1386, 2006), and analysis was made by applying the sample to high-performance liquid chromatography (SHIMADZU) and using a photodiode array detector (SPD-M30A, SHIMADZU).

[5] = compared with rutin, hesperidin, or naringin having a rhamnoside structure

SMILES: COc1ccc(C2CC(=O)c3c(O)cc(OC4OC(CO)C(O)C(O)C4O)cc3O2)cc1O (stereo not drawn) [Hesperetin-7-Glucoside, hesperetin-7-glucoside]
- bioavailability in rats ([1]; rat, in vivo): higher
- presence or absence of the precipitates, 4° C. [2]: x (those in which the precipitates were observed were evaluated as x)
- presence or absence of the precipitates, 25° C. [2]: x (those in which the precipitates were observed were evaluated as x)

SMILES: O=C1C[C@@H](c2ccc(O)cc2)Oc2cc(O[C@@H]3O[C@H](CO)[C@@H](O)[C@H](O)[C@H]3O)cc(O)c21 [Naringenin-7-glucoside, naringenin-7-glucoside]
- bioavailability in rats [1, 5]: higher
- presence or absence of the precipitates, 4° C. [3]: x (those in which the precipitates were observed were evaluated as x)
- presence or absence of the precipitates, 25° C. [3]: x (those in which the precipitates were observed were evaluated as x)

SMILES: O=C1C[C@@H](c2ccc(O)cc2)Oc2cc(O)cc(O)c21 [naringenin]
- bioavailability in rats [1, 5]: higher

SMILES: C[C@@H]1O[C@@H](O[C@H]2[C@H](Oc3cc(O)c4c(c3)O[C@H](c3ccc(O)cc3)CC4=O)O[C@H](CO)[C@@H](O)[C@@H]2O)[C@H](O)[C@H](O)[C@H]1O [Naringin]
- presence or absence of the precipitates, 4° C. [3]: x (those in which the precipitates were observed were evaluated as x)
- presence or absence of the precipitates, 25° C. [3]: x (those in which the precipitates were observed were evaluated as x)

SMILES: O=c1c(O[C@@H]2O[C@H](CO)[C@@H](O)[C@H](O)[C@H]2O)c(-c2ccc(O)c(O)c2)oc2cc(O)cc(O)c12 [Isoquercitrin, isoquercitrin]
- bioavailability in rats [1, 5]: higher

SMILES: COc1ccc([C@@H]2CC(=O)c3c(O)cc(O[C@@H]4O[C@H](CO[C@@H]5O[C@@H](C)[C@H](O)[C@@H](O)[C@H]5O)[C@@H](O)[C@H](O)[C@H]4O)cc3O2)cc1O [Hesperidin]
- AUC, hesperetin ([4]; rat plasma, single oral 1,000 μmol/kg (calculated as HPT-7G), 0 to 3 hours): 0.082 µM·h
- Hesperetin concentration ([4]; rat plasma, single oral 1,000 μmol/kg (calculated as HPT-7G), time of blood drawing 0): 0 µM
- Hesperetin concentration ([4]; rat plasma, single oral 1,000 μmol/kg (calculated as HPT-7G), time of blood drawing 0.5 (hours)): 0.003 µM
- Hesperetin concentration ([4]; rat plasma, single oral 1,000 μmol/kg (calculated as HPT-7G), time of blood drawing 1 (hour)): 0.064 µM
- Hesperetin concentration ([4]; rat plasma, single oral 1,000 μmol/kg (calculated as HPT-7G), time of blood drawing 3 (hours)): 0 µM
- presence or absence of the precipitates, 4° C. [2]: x (those in which the precipitates were observed were evaluated as x)
- presence or absence of the precipitates, 25° C. [2]: x (those in which the precipitates were observed were evaluated as x)

SMILES: C[C@@H]1O[C@@H](OC[C@H]2O[C@@H](Oc3c(-c4ccc(O)c(O)c4)oc4cc(O)cc(O)c4c3=O)[C@H](O)[C@@H](O)[C@@H]2O)[C@H](O)[C@H](O)[C@H]1O [Rutin Suspension, rutin]
- AUC, Total (quercetin and quercetin derivatives) ([4]; male, Wister, rat, in vivo, po, 100 umol/kg): 0.1 µM·h
